Measured values taken from ChEMBL document CHEMBL4376892, “Identification of Parthenolide Dimers as Activators of Pyruvate Kinase M2 in Xenografts of Glioblastoma Multiforme in Vivo” (J Med Chem, 2020).
Calls of active or inactive are those of the source. The calls are words filed in the database; no cut-off is given here.

Tests used:
Pyruvate kinase PKM [1] = target: T1, Pyruvate kinase PKM (Homo sapiens, UniProt P14618); assay: Activation of recombinant human N-terminal 6His-tagged PKM2 expressed in Escherichia coli BL21 cells after 50 mins by fluorescence based analysis
Target sequence in this assay (P14618 whole entry): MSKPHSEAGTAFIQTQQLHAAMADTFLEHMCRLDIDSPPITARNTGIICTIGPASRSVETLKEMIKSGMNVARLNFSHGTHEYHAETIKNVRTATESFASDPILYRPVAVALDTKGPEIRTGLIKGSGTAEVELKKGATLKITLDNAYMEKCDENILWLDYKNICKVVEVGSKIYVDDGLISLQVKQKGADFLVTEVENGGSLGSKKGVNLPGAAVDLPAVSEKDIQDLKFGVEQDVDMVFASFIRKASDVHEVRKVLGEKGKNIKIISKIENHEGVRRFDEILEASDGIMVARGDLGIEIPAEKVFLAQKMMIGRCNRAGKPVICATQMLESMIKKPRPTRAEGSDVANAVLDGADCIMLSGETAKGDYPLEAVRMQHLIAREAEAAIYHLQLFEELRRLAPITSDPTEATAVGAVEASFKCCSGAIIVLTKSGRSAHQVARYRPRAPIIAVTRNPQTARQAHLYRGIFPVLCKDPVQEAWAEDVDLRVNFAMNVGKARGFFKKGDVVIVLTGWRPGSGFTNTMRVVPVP

U-87 MG [2] = assay: Antiproliferative activity against human U87 cells assessed as reduction in cell viability after 72 hrs by MTT assay; format: functional, cell-based, U-87MG ATCC
U-118-MG [3] = assay: Antiproliferative activity against human U118MG cells assessed as reduction in cell viability after 72 hrs by MTT assay; format: functional, cell-based
[4] = Antiproliferative activity against human SHG44 cells assessed as reduction in cell viability after 72 hrs by MTT assay; format: functional, cell-based; conditions: SHG-44, 72 h
HeLa = assay: Antiproliferative activity against human HeLa cells assessed as reduction in cell viability after 72 hrs by MTT assay; format: functional, cell-based
U-118-MG [5] = assay: Inhibition of colony formation in human U118MG cells after 7 days; format: functional, cell-based
U-87 MG [6] = assay: Antimetastatic activity against human U87 cells assessed as reduction in cell invasion at 2 uM after 24 hrs by crystal violet staining based transwell assay; format: functional; conditions: U-87MG ATCC
U-118-MG [7] = assay: Antimetastatic activity against human U118MG cells assessed as reduction in cell migration at 2 uM after 24 hrs by crystal violet staining based transwell assay; format: functional
U-118-MG [8] = assay: Antimetastatic activity against human U118MG cells assessed as reduction in cell invasion at 2 uM after 24 hrs by crystal violet staining based transwell assay; format: functional
U-118-MG [9] = assay: Effect on total PKM2 protein expression in human U118MG cells at 0.5 to 2 uM after 48 hrs by Western blot analysis; format: functional, cell-based
Pyruvate kinase PKM [10] = target: T1, Pyruvate kinase PKM; assay: Induction of tetrameric formation of recombinant human N-terminal 6His-tagged PKM2 expressed in Escherichia coli BL21 cells assessed as increase in particle size at 10 uM after 30 mins by dynamic laser light scattering analysis
Target sequence in this assay (P14618 2-531 limits assumed): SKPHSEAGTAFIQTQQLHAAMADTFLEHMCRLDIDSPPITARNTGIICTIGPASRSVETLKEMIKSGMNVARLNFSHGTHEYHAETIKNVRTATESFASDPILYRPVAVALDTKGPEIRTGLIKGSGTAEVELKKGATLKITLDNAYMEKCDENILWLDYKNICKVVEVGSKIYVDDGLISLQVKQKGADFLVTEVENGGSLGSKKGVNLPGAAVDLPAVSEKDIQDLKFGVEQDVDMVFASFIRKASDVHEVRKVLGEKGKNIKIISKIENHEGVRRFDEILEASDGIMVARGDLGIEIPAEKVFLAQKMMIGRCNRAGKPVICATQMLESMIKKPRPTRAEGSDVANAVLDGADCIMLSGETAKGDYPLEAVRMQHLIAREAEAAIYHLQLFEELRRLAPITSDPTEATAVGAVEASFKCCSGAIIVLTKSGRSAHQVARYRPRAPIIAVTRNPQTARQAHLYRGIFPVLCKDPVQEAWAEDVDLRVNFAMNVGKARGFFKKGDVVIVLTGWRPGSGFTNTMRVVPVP

U-87MG ATCC [11] = assay: Effect on IKK-beta protein expression in human U87 cells at 0.2 to 0.5 uM after 48 hrs by Western blot analysis; format: functional, cell-based
U-87MG ATCC [12] = assay: Effect on P65 protein expression in human U87 cells at 0.2 to 0.5 uM after 48 hrs by Western blot analysis; format: functional, cell-based
U-118-MG [13] = assay: Effect on P65 protein expression in human U118MG cells at 0.2 to 0.5 uM after 48 hrs by Western blot analysis; format: functional, cell-based
Pyruvate kinase PKM [14] = target: T1, Pyruvate kinase PKM; assay: Activation of PKM2 in human U87 cells assessed as inhibition of STAT3 protein expression at 1 to 2 uM after 24 hrs by Western blot analysis; format: cell-based; conditions: U-87MG ATCC
Target sequence in this assay (P14618 2-531 limits assumed): as above

Pyruvate kinase PKM [15] = target: T1, Pyruvate kinase PKM; assay: Activation of PKM2 in human U87 cells assessed as inhibition of STAT3 phosphorylation at 1 to 2 uM after 24 hrs by Western blot analysis; format: cell-based; conditions: U-87MG ATCC
Target sequence in this assay (P14618 2-531 limits assumed): as above

Pyruvate kinase PKM [16] = target: T1, Pyruvate kinase PKM; assay: Activation of PKM2 in human U87 cells assessed as reduction in vimentin expression at 1 to 2 uM after 24 hrs by Western blot analysis; format: cell-based; conditions: U-87MG ATCC
Target sequence in this assay (P14618 2-531 limits assumed): as above

Pyruvate kinase PKM [17] = target: T1, Pyruvate kinase PKM; assay: Activation of PKM2 in human U118MG cells assessed as reduction in bcl2 expression at 1 to 2 uM after 48 hrs by Western blot analysis; format: cell-based
Target sequence in this assay (P14618 2-531 limits assumed): as above

Pyruvate kinase PKM [18] = target: T1, Pyruvate kinase PKM; assay: Activation of PKM2 in human U118MG cells assessed as inhibition of STAT3 protein expression at 2 uM after 48 hrs by Western blot analysis; format: cell-based
Target sequence in this assay (P14618 2-531 limits assumed): as above

Pyruvate kinase PKM [19] = target: T1, Pyruvate kinase PKM; assay: Activation of PKM2 in human U87 cells assessed as inhibition of STAT3 protein expression at 5 uM after 48 hrs by Western blot analysis; format: cell-based; conditions: U-87MG ATCC
U-118-MG [20] = assay: Antiproliferative activity against human U118MG cells transfected with lentivirus expressing shPKM2 assessed as as reduction in cell viability after 24 hrs by MTT assay; format: functional, cell-based
U-87 MG [21] = assay: Induction of apoptosis in human U87 cells transfected with lentivirus expressing shNC assessed as early apoptotic cells after 48 hrs by Annexin-V-FITC/PI-staining based flow cytometric analysis (reference value: 0.588%); format: functional, U-87MG ATCC
U-87 MG [22] = assay: Induction of apoptosis in human U87 cells transfected with lentivirus expressing shNC assessed as late apoptotic cells after 48 hrs by Annexin-V-FITC/PI-staining based flow cytometric analysis (reference value: 0.608%); format: functional, U-87MG ATCC
U-87 MG [23] = assay: Induction of apoptosis in human U87 cells transfected with lentivirus expressing shNC assessed as necrotic cells after 48 hrs by Annexin-V-FITC/PI-staining based flow cytometric analysis (reference value: 0.319%); format: functional, U-87MG ATCC
U-87 MG [24] = assay: Induction of apoptosis in human U87 cells transfected with lentivirus expressing shPKM2 assessed as late apoptotic cells after 48 hrs by Annexin-V-FITC/PI-staining based flow cytometric analysis (reference value: 1.25%); format: functional, U-87MG ATCC
U-118-MG [25] = assay: Induction of apoptosis in human U118MG cells transfected with lentivirus expressing shNC assessed as early apoptotic cells after 48 hrs by Annexin-V-FITC/PI-staining based flow cytometric analysis (reference value: 2.56%); format: functional
U-118-MG [26] = assay: Induction of apoptosis in human U118MG cells transfected with lentivirus expressing shNC assessed as late apoptotic cells after 48 hrs by Annexin-V-FITC/PI-staining based flow cytometric analysis (reference value: 0.334%); format: functional
U-118-MG [27] = assay: Induction of apoptosis in human U118MG cells transfected with lentivirus expressing shNC assessed as necrotic cells after 48 hrs by Annexin-V-FITC/PI-staining based flow cytometric analysis (reference value: 0.418%); format: functional
U-118-MG [28] = assay: Antiinvasive activity against human U118MG cells transfected with lentivirus expressing shPKM2 at 2 uM incubated for 48 hrs by crystal violet staining based transwell assay; format: functional, cell-based
U-118-MG [29] = assay: Induction of apoptosis in human U118MG cells assessed as viable cells after 48 hrs by Annexin-V-FITC/PI-staining based flow cytometric analysis (reference value: 96.7%); format: functional
U-118-MG [30] = assay: Induction of apoptosis in human U118MG cells assessed as early apoptotic cells after 48 hrs by Annexin-V-FITC/PI-staining based flow cytometric analysis (reference value: 1.35%); format: functional
U-118-MG [31] = assay: Induction of apoptosis in human U118MG cells assessed as late apoptotic cells after 48 hrs by Annexin-V-FITC/PI-staining based flow cytometric analysis (reference value: 0.616%); format: functional
U-118-MG [32] = assay: Induction of apoptosis in human U118MG cells assessed as necrotic cells after 48 hrs by Annexin-V-FITC/PI-staining based flow cytometric analysis (reference value: 1.37%); format: functional
U-87 MG [33] = assay: Induction of apoptosis in human U87 cells assessed as late apoptotic cells after 48 hrs by Annexin-V-FITC/PI-staining based flow cytometric analysis (reference value: 1.22%); format: functional, U-87MG ATCC
U-87 MG [34] = assay: Induction of apoptosis in human U87 cells assessed as necrotic cells after 48 hrs by Annexin-V-FITC/PI-staining based flow cytometric analysis (reference value: 0.1%); format: functional, U-87MG ATCC
Pyruvate kinase PKM [35] = target: T1, Pyruvate kinase PKM; assay: Covalent binding affinity to recombinant human N-terminal 6His-tagged PKM2 expressed in Escherichia coli BL21 Cells after 2 hrs by LC-MS/MS analysis
U-87 MG [36] = assay: Antimigratory activity against human U87 cells transfected with lentivirus expressing shNC at 2 uM incubated for 48 hrs by crystal violet staining based transwell assay; format: functional, cell-based; conditions: U-87MG ATCC
U-87 MG [37] = assay: Antiinvasive activity against human U87 cells transfected with lentivirus expressing shNC at 2 uM incubated for 48 hrs by crystal violet staining based transwell assay; format: functional, cell-based; conditions: U-87MG ATCC

Q: For `C=C1C(=O)O[C@H]2[C@H]1CC/C(C(=O)OCCOCCOC(=O)/C1=C/CC[C@@]3(C)O[C@H]3[C@H]3OC(=O)C(=C)[C@@H]3CC1)=C\CC[C@@]1(C)O[C@@H]21`, which AC50 (Pyruvate kinase PKM [1]) is on record?
A: Its AC50 is 15 nM.

Q: And the IC50 (U-87 MG [2])?
A: The IC50 was 3030 nM.

Q: And the IC50 (U-118-MG [3])?
A: Its IC50 is 1800 nM.

Q: And the IC50 [4]?
A: The IC50 was 5240 nM.

Q: And the IC50 (HeLa)?
A: Its IC50 is 5050 nM.

Q: What about the inhibition (U-118-MG [5]) of the same compound?
A: The inhibition was “Dose-dependent effect”.

Q: And the Activity (U-87 MG [6])?
A: The Activity was “Active”.

Q: And the Activity (U-118-MG [7])?
A: The Activity was “Active”.

Q: What about the Activity (U-118-MG [8]) of the same compound?
A: The Activity was “Active”.

Q: And the Activity (U-118-MG [9])?
A: The Activity was “inactive”.

Q: What about the Activity (Pyruvate kinase PKM [10]) of the same compound?
A: Its Activity is “Active”.

Q: And the Activity (U-87MG ATCC [11])?
A: Its Activity is “inactive”.

Q: And the Activity (U-87MG ATCC [12])?
A: Its Activity is “inactive”.

Q: And the Activity (U-118-MG [13])?
A: Its Activity is “inactive”.

Q: What about the Activity (Pyruvate kinase PKM [14]) of the same compound?
A: The Activity was “Active”.

Q: And the Activity (Pyruvate kinase PKM [15])?
A: Its Activity is “Active”.

Q: What about the Activity (Pyruvate kinase PKM [16]) of the same compound?
A: Its Activity is “Active”.

Q: And the Activity (Pyruvate kinase PKM [17])?
A: The Activity was “Active”.

Q: And the Activity (Pyruvate kinase PKM [18])?
A: Its Activity is “Active”.

Q: And the Activity (Pyruvate kinase PKM [19])?
A: The Activity was “Active”.

Q: And the IC50 (U-118-MG [20])?
A: The IC50 was 1980 nM.

Q: And the Activity (U-87 MG [21])?
A: Its Activity is 9.99%.

Q: What about the Activity (U-87 MG [22]) of the same compound?
A: The Activity was 3.62%.

Q: And the Activity (U-87 MG [23])?
A: Its Activity is 1.24%.

Q: And the Activity (U-87 MG [24])?
A: The Activity was 2.76%.

Q: And the Activity (U-118-MG [25])?
A: Its Activity is 47.1%.

Q: And the Activity (U-118-MG [26])?
A: Its Activity is 16.4%.

Q: And the Activity (U-118-MG [27])?
A: The Activity was 1.85%.

Q: And the Activity (U-118-MG [28])?
A: The Activity was “inactive”.

Q: What about the Activity (U-118-MG [29]) of the same compound?
A: Its Activity is 12.5%.

Q: What about the Activity (U-118-MG [30]) of the same compound?
A: Its Activity is 39.4%.

Q: What about the Activity (U-118-MG [31]) of the same compound?
A: Its Activity is 42.1%.

Q: And the Activity (U-118-MG [32])?
A: Its Activity is 6.01%.

Q: And the Activity (U-87 MG [33])?
A: Its Activity is 2.82%.

Q: What about the Activity (U-87 MG [34]) of the same compound?
A: Its Activity is 0.256%.

Q: What about the Activity (Pyruvate kinase PKM [35]) of the same compound?
A: Its Activity is “Active”.

Q: What about the Activity (U-87 MG [36]) of the same compound?
A: Its Activity is “Active”.

Q: And the Activity (U-87 MG [37])?
A: The Activity was “Active”.
